{
  "source": "patent US6399647B2",
  "about": "“Amide derivatives for antiangiogenic and/or antitumorigenic use” (Vanderbilt University, priority 1999, dated 2002)",
  "key": {"ovine COX-1": {"target": "T1, ovine COX-1 (Ovis aries, UniProt P05979)", "T1 construct": "COX-1 was purified from ram seminal vesicles obtained from Oxford Biomedical Research, Inc; tissue Oxford Biomedical Research, Inc. (Oxford, Michigan) (supplier of the tissue); host or cells: ram seminal vesicles", "T1 sequence (P05979 25-600)": "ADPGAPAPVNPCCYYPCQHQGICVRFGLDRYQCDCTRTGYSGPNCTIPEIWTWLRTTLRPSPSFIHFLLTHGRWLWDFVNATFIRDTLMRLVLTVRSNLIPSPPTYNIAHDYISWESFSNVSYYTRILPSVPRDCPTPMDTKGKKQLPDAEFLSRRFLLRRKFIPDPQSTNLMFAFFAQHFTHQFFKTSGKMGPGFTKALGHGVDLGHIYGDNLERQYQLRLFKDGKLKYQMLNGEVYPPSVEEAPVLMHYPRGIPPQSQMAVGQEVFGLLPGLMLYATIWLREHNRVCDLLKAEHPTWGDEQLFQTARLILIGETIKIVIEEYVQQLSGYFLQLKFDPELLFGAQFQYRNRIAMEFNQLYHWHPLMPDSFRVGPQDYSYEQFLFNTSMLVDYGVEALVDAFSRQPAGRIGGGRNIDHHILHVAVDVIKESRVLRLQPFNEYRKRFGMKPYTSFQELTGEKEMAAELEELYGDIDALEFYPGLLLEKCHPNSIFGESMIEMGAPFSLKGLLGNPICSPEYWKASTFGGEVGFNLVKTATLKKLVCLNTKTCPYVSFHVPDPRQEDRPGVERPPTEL", "experiment": "TLC assay, inhibition of purified ovine COX-1", "assay_type": "biochemical", "conditions": "ovine COX-1 (44 nM), inhibitor 20 min, then 1-14C-AA (50 μM) at 37° C. for 30 sec, duplicate"}, "[1]": {"system": "carrageenan-induced rat foot pad edema", "experiment": "Rat foot pad edema model (carrageenan)", "assay_type": "in vivo", "conditions": "2 mg/kg orally", "procedure": "Rats were injected with carrageenan, which triggers a rapid edema (swelling) within 3 hours that can be quantitatively measured by volume displacement.\nIn these experiments, the carrageenan that was injected was in 0.1 mL of aqueous saline so that 0.1 mL volume increase was due to the injection alone.\nMore specifically, male Sprague-Dawley rats (150 g) received a subplantar injection of carrageenan (0.1 mL of a 1% suspension of carrageenan in sterile aqueous saline) into the right hind footpad while mildly anesthetized with methoxyflurane. […] The ipsilateral footpad volume (mL) was measured with a water displacement plethysmometer at time=3 hours post-injection and compared to the time=0 pre-injection paw volume for edema calculations."}, "COX-2 [2]": {"target": "T2, COX-2 (Homo sapiens, UniProt P35354)", "T2 sequence (P35354 18-604)": "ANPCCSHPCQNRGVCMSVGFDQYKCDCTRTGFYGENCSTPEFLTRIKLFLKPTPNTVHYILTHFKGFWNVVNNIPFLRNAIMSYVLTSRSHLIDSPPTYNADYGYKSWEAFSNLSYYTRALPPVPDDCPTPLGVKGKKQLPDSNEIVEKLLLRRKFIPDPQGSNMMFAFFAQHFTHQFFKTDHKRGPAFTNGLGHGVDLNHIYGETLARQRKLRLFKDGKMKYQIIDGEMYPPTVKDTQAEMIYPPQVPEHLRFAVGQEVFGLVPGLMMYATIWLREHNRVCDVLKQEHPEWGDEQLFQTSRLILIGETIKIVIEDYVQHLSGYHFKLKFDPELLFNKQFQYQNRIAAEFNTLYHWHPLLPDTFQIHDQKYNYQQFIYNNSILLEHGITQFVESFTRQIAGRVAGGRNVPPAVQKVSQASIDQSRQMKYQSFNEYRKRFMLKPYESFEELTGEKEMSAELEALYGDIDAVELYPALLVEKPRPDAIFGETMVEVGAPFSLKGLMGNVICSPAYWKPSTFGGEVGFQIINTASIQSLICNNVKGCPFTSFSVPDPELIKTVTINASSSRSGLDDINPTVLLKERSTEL", "experiment": "TLC assay, inhibition of purified human COX-2", "assay_type": "biochemical", "parameters": "made in house; host or cells: insect cells (baculovirus vectors)"}, "COX-1": {"system": "COX-1", "conditions": "background b24; cited from earlier work"}, "tumors": {"system": "tumors", "conditions": "background b24; cited from earlier work"}, "COX-2 [3]": {"target": "T2, COX-2", "conditions": "background b24; cited from earlier work"}, "[4]": {"system": "HCA-7 (human colon adenocarcinoma, colony 29) cells", "experiment": "Human tumor xenograft assay in nude mice", "assay_type": "in vivo", "conditions": "HCA-7, 5 mg/kg intraperitoneally 3 times per week", "protocol": "Tumor volume was determined by external measurement with an electronic caliper."}},
  "note": "Like-named read-outs stand apart in the source and are kept apart here.",
  "data": [
    {"molecule": "COc1ccc2c(c1)c(CC(=O)N(C)CCc1ccccc1)c(C)n2C(=O)c1ccc(Cl)cc1", "note": "[Compound 9, lndomethacin-N-methylphenethyl amide]", "values": [
      {"measurement": "IC50", "setting": "ovine COX-1", "value": "> 66", "unit": "µM"}
    ]},
    {"molecule": "COc1ccc2c(c1)c(CC(=O)Nc1ccc(NC(C)=O)cc1)c(C)n2C(=O)c1ccc(Cl)cc1", "note": "[Compound 14, Indomethacin-N-(4-acetamidophenyl) amide]", "values": [
      {"measurement": "effect on swelling / inflammation (in words)", "setting": "[1]", "value": "dramatic decrease in swelling"}
    ]},
    {"molecule": "COc1ccc2c(c1)c(CC(=O)Nc1cccnc1)c(C)n2C(=O)c1ccc(Cl)cc1", "note": "[Compound 20, Indomethacin-N-(3-pyridyl) amide]", "values": [
      {"measurement": "COX-2 inhibition (in words)", "setting": "COX-2 [2]", "value": "potent and selective COX-2 inhibition"}
    ]},
    {"molecule": "COc1ccc2c(c1)c(CC(=O)O)c(C)n2C(=O)c1ccc(Cl)cc1", "note": "[Indomethacin, indomethacin, reference compound]", "values": [
      {"measurement": "effect on swelling / inflammation (in words)", "setting": "[1]", "value": "comparable reduction in inflammation"}
    ]},
    {"molecule": "CSc1ccc(/C=C2/C(C)=C(CC(=O)O)c3cc(F)ccc32)cc1", "note": "[sulindac sulfide]", "values": [
      {"measurement": "more potent inhibitor against COX-1 than COX-2", "setting": "COX-1", "value": 40, "unit": "fold"},
      {"measurement": "inhibition of tumors (in words)", "setting": "tumors", "value": "exhibits inhibition of tumors"}
    ]},
    {"molecule": "CC1=C(CC(=O)O)c2cc(F)ccc2/C1=C\\c1ccc(S(C)(=O)=O)cc1", "note": "[sulindac sulfone]", "values": [
      {"measurement": "COX-1 inhibition (in words)", "setting": "COX-1", "value": "does not inhibit"},
      {"measurement": "COX-2 inhibition (in words)", "setting": "COX-2 [3]", "value": "does not inhibit"},
      {"measurement": "inhibition of tumors (in words)", "setting": "tumors", "value": "exhibits inhibition of tumors"}
    ]},
    {"molecule": "Indomethacin-N-2-(2-L-methoxycarbonylethyl) amide [Compound 25]", "values": [
      {"measurement": "IC50", "setting": "COX-2 [2]; human COX-2 (66 nM), inhibitor 20 min, then 1-14C-AA (50 μM) at 37° C. for 30 sec, duplicate", "value": 0.4, "unit": "µM"}
    ]},
    {"molecule": "Indomethacin-N-(2-phenethyl) amide [Compound 11]", "values": [
      {"measurement": "tumor growth (in words)", "setting": "[4]", "value": "significantly inhibited tumor growth"},
      {"measurement": "tumor vol. cm^3", "setting": "[4]; day of explant 22", "value": 0.10, "unit": "cm^3"},
      {"measurement": "tumor vol. cm^3", "setting": "[4]; day of explant 25", "value": 0.11, "unit": "cm^3"},
      {"measurement": "tumor vol. cm^3", "setting": "[4]; day of explant 27", "value": 0.13, "unit": "cm^3"},
      {"measurement": "tumor vol. cm^3", "setting": "[4]; day of explant 29", "value": 0.14, "unit": "cm^3"},
      {"measurement": "tumor vol. cm^3", "setting": "[4]; day of explant 31", "value": 0.17, "unit": "cm^3"}
    ]}
  ]
}
